From PubChem BioAssay AID256 (DTP/NCI, 2004) come the findings set out here.

The test relates to CD2F1 mice, L1210 leukemia ip, survival T/C. In words: NCI In Vivo Anticancer Drug Screen. Data for tumor model L1210 Leukemia (intraperitoneal) in CD2F1 (CDF1) mice. As to conditions: higher = longer survival. In short, it runs like this:
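Ratio T/C, where T is the treated-group value and C the vehicle-dosed control value, from mice implanted with a transplantable tumor.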

[1] abbreviates: endpoint: mean survival time, dose: 100.0 mg/kg/injection, schedule: Q04DX003 (ip), vehicle: saline with Tween-80.
[2] abbreviates: endpoint: mean survival time, dose: 200.0 mg/kg/injection, schedule: Q04DX003 (ip), vehicle: saline with Tween-80.
Where [3] appears, read: endpoint: mean survival time, dose: 400.0 mg/kg/injection, schedule: Q04DX003 (ip), vehicle: saline with Tween-80.
Setting [4] is: endpoint: mean survival time, dose: 100.0 mg/kg/injection, schedule: Q04DX002 (ip), vehicle: saline with Tween-80.
Setting [5] is: endpoint: mean survival time, dose: 200.0 mg/kg/injection, schedule: Q04DX002 (ip), vehicle: saline with Tween-80.
Where [6] appears, read: endpoint: mean survival time, dose: 100.0 mg/kg/injection, schedule: Q01DX001 (ip), vehicle: saline with Tween-80.
Where [7] appears, read: endpoint: mean survival time, dose: 25.0 mg/kg/injection, schedule: Q01DX001 (ip), vehicle: saline with Tween-80.

Values joined by “and” are separate entries in the source; they are usually repeats but may differ in a detail not shown here. Identical values can stand only once. Toxic doses and inconclusive results are not listed.

For `O=c1ncccn1[C@@H]1O[C@H](CO)[C@H](O)C1O` (some centres not stated), the T/C was 114 % of control and 109 % of control (endpoint: median survival time, dose: 25.0 mg/kg/injection, schedule: Q01DX009 (ip), vehicle: saline); 102 % of control (endpoint: median survival time, dose: 75.0 mg/kg/injection, schedule: Q04DX003 (ip), vehicle: saline); 102 % of control (endpoint: median survival time, dose: 100.0 mg/kg/injection, schedule: Q01DX009 (oral), vehicle: saline); 101 % of control (endpoint: median survival time, dose: 125.0 mg/kg/injection, schedule: Q01DX001 (oral), vehicle: saline); 106 % of control (endpoint: median survival time, dose: 150.0 mg/kg/injection, schedule: Q04DX003 (ip), vehicle: saline); 110 % of control (endpoint: median survival time, dose: 200.0 mg/kg/injection, schedule: Q01DX009 (oral), vehicle: saline). Further, the T/C (endpoint: median survival time, dose: 250.0 mg/kg/injection, schedule: Q01DX001 (oral), vehicle: saline) is 102 % of control; the T/C (endpoint: median survival time, dose: 300.0 mg/kg/injection, schedule: Q04DX003 (ip), vehicle: saline) is 111 % of control; the T/C (endpoint: median survival time, dose: 500.0 mg/kg/injection, schedule: Q01DX001 (oral), vehicle: saline) is 105 % of control; the T/C (endpoint: median survival time, dose: 600.0 mg/kg/injection, schedule: Q04DX003 (ip), vehicle: saline) was 114 % of control; the T/C (endpoint: median survival time, dose: 800.0 mg/kg/injection, schedule: Q01DX009 (oral), vehicle: saline) was 177 % of control; the T/C (endpoint: median survival time, dose: 1000.0 mg/kg/injection, schedule: Q01DX001 (oral), vehicle: saline) is 107 % of control. The T/C is 113 % of control (endpoint: median survival time, dose: 1200.0 mg/kg/injection, schedule: Q04DX003 (ip), vehicle: saline); 212 % of control (endpoint: median survival time, dose: 1600.0 mg/kg/injection, schedule: Q01DX009 (oral), vehicle: saline); 115 % of control (endpoint: median survival time, dose: 2000.0 mg/kg/injection, schedule: Q01DX001 (oral), vehicle: saline).
With `CC(=O)c1ccco1`, the T/C is 96 % of control (endpoint: mean survival time, dose: 12.5 mg/kg/injection, schedule: Q01DX009 (ip), vehicle: saline with Tween-80); 95 % of control (endpoint: mean survival time, dose: 25.0 mg/kg/injection, schedule: Q01DX009 (ip), vehicle: saline with Tween-80); 104 % of control (endpoint: mean survival time, dose: 25.0 mg/kg/injection, schedule: Q04DX003 (ip), vehicle: saline with Tween-80); 98 % of control (endpoint: mean survival time, dose: 50.0 mg/kg/injection, schedule: Q01DX009 (ip), vehicle: saline with Tween-80); 122 % of control (endpoint: mean survival time, dose: 50.0 mg/kg/injection, schedule: Q04DX003 (ip), vehicle: saline with Tween-80).
Take `CN(C)C=Nc1c(Cl)cccc1Cl`: the T/C (endpoint: mean survival time, dose: 50.0 mg/kg/injection, schedule: Q01DX001 (ip), vehicle: saline) is 100 % of control; the T/C (endpoint: mean survival time, dose: 100.0 mg/kg/injection, schedule: Q01DX001 (ip), vehicle: saline) is 103 % of control; the T/C (endpoint: mean survival time, dose: 200.0 mg/kg/injection, schedule: Q01DX001 (ip), vehicle: saline) was 97 % of control; the T/C (endpoint: mean survival time, dose: 400.0 mg/kg/injection, schedule: Q01DX001 (ip), vehicle: saline) is 106 % of control.
`CC(C)OC(=O)Nc1ccc(F)cc1F`: the T/C is 96 % of control under setting [1], 102 % of control under setting [2] and 98 % of control under setting [3].
As to `O=c1c2ccccc2sc2cccc(Sc3ccccc3)c12`, the T/C is, setting by setting: under setting [1], 95 % of control; under setting [2], 96 % of control; under setting [3], 91 % of control.
`CN(C)c1ccc(/C=N/NC(=O)c2ccccc2)cc1`: the T/C is 90 % of control (endpoint: mean survival time, dose: 3.12 mg/kg/injection, schedule: Q04DX003 (ip), vehicle: saline with Tween-80); 96 % of control (endpoint: mean survival time, dose: 6.25 mg/kg/injection, schedule: Q04DX003 (ip), vehicle: saline with Tween-80); 94 % of control (endpoint: mean survival time, dose: 12.5 mg/kg/injection, schedule: Q04DX003 (ip), vehicle: saline with Tween-80).
Take `O=C(O)c1c(F)cccc1F`: the T/C by setting is: (endpoint: mean survival time, dose: 75.0 mg/kg/injection, schedule: Q01DX001 (ip), vehicle: other) 103 % of control; (endpoint: mean survival time, dose: 150.0 mg/kg/injection, schedule: Q01DX001 (ip), vehicle: other) 100 % of control; (endpoint: mean survival time, dose: 300.0 mg/kg/injection, schedule: Q01DX001 (ip), vehicle: other) 100 % of control.
For `CC1NC(=O)OC1(C)c1ccccc1` (configuration not stated), the T/C is, setting by setting: under setting [4], 103 % of control; under setting [5], 98 % of control.
In the case of `C1CCC(CCCC(CCCC2CCCCC2)CCCC2CCCCC2)CC1`, the T/C is, setting by setting: under setting [6], 94 % of control; (endpoint: mean survival time, dose: 200.0 mg/kg/injection, schedule: Q01DX001 (ip), vehicle: saline with Tween-80) 91 % of control; (endpoint: mean survival time, dose: 400.0 mg/kg/injection, schedule: Q01DX001 (ip), vehicle: saline with Tween-80) 88 % of control.
Turning to `COCC1OC(COC)C(OC)C1OC` (configuration not stated), the T/C was 102 % of control (endpoint: mean survival time, dose: 100.0 mg/kg/injection, schedule: Q04DX003 (ip), vehicle: acetone); 102 % of control (endpoint: mean survival time, dose: 200.0 mg/kg/injection, schedule: Q04DX003 (ip), vehicle: acetone); 94 % of control (endpoint: mean survival time, dose: 400.0 mg/kg/injection, schedule: Q04DX003 (ip), vehicle: acetone).
Consider `N#CCS(=O)(=O)c1cccc[n+]1[O-]`, for which the T/C (endpoint: median survival time, dose: 25.0 mg/kg/injection, schedule: Q01DX009 (ip), vehicle: saline with Tween-80) was 97 % of control; the T/C (endpoint: median survival time, dose: 50.0 mg/kg/injection, schedule: Q01DX009 (ip), vehicle: saline with Tween-80) was 98 % of control; the T/C (endpoint: median survival time, dose: 100.0 mg/kg/injection, schedule: Q01DX009 (ip), vehicle: saline with Tween-80) is 98 % of control; the T/C (endpoint: median survival time, dose: 200.0 mg/kg/injection, schedule: Q01DX009 (ip), vehicle: saline with Tween-80) is 107 % of control; the T/C (endpoint: median survival time, dose: 400.0 mg/kg/injection, schedule: Q01DX009 (ip), vehicle: saline with Tween-80) was 116 % of control.
In the case of `C(#Cc1ccccc1)/C=C/C=C/c1ccccc1`, the T/C under setting [7] is 95 % of control; the T/C (endpoint: mean survival time, dose: 50.0 mg/kg/injection, schedule: Q01DX001 (ip), vehicle: saline with Tween-80) was 87 % of control; the T/C under setting [6] is 87 % of control and 89 % of control.
As to `NC(=O)CCc1ccnc2ccccc12`, the T/C by setting is: under setting [4], 96 % of control; under setting [5], 92 % of control.
Turning to `CCCCCCCCCCCCCCCCCC[N+](CC)(CC)CC`, the T/C (endpoint: mean survival time, dose: 0.75 mg/kg/injection, schedule: Q01DX001 (ip), vehicle: Klucel (hydroxypropylcellulose) (HPC)) was 91 % of control; the T/C (endpoint: mean survival time, dose: 1.5 mg/kg/injection, schedule: Q01DX001 (ip), vehicle: Klucel (hydroxypropylcellulose) (HPC)) was 108 % of control; the T/C (endpoint: mean survival time, dose: 3.0 mg/kg/injection, schedule: Q01DX001 (ip), vehicle: Klucel (hydroxypropylcellulose) (HPC)) was 100 % of control.
For the compound `CN1CC(C(=O)NC(C)(C)C)CC(c2ccccc2)C1` (configuration not stated), the T/C was 102 % of control (endpoint: mean survival time, dose: 6.25 mg/kg/injection, schedule: Q01DX001 (ip), vehicle: saline with Tween-80); 106 % of control (endpoint: mean survival time, dose: 12.5 mg/kg/injection, schedule: Q01DX001 (ip), vehicle: saline with Tween-80); 100 % of control under setting [7].
For the compound `NC(=O)OCCc1c2ccccc2[n+]([O-])c2ccccc12`, the T/C is, setting by setting: (endpoint: mean survival time, dose: 50.0 mg/kg/injection, schedule: Q04DX002 (ip), vehicle: saline with Tween-80) 98 % of control; under setting [4], 95 % of control; under setting [5], 98 % of control; (endpoint: mean survival time, dose: 400.0 mg/kg/injection, schedule: Q04DX002 (ip), vehicle: saline with Tween-80) 95 % of control.
Regarding `C[N+](C)(C)CCS(=O)(=O)c1ccc(Cl)cc1`, the T/C reads like this: (endpoint: mean survival time, dose: 25.0 mg/kg/injection, schedule: Q04DX002 (ip), vehicle: saline) 90 % of control; (endpoint: mean survival time, dose: 50.0 mg/kg/injection, schedule: Q04DX002 (ip), vehicle: saline) 94 % of control; (endpoint: mean survival time, dose: 100.0 mg/kg/injection, schedule: Q04DX002 (ip), vehicle: saline) 86 % of control.
